Measurements reported in PubChem BioAssay (NCI).
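Following 48 hours of exposure in 96-well plates, responses at five concentrations were used to interpolate endpoints linearly. Definition used: TGI = concentration required for complete inhibition of growth.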 Where a SMILES comes first, the peptide text is derived from it. [ ]: non-standard residue; d: D form. The star is where a group is joined. Cbz = O=C(OCc1ccccc1)*; Aib = CC(C)(N)C(=O)O

How the values were obtained:
Experiment in all cases: NCI tumour cell line growth inhibition, 48 h
[1] = test system: SK-OV-3 ovarian
[2] = test system: NCI-H23 lung
[3] = test system: TK-10 renal
[4] = test system: OVCAR-3 ovarian
[5] = test system: MCF7 breast
[6] = test system: IGROV1 ovarian
[7] = test system: CCRF-CEM leukemia
[8] = test system: SNB-19 CNS
[9] = test system: NCI-H226 lung
[10] = test system: SNB-75 CNS
[11] = test system: RPMI-8226 leukemia

SMILES | TGI [1] | TGI [2] | TGI [3] | TGI [4] | TGI [5] | TGI [6] | TGI [7] | TGI [8] | TGI [9] | TGI [10] | TGI [11]
CNC(=O)C1OC(n2cnc3c(NCc4cccc(I)c4)nc(Cl)nc32)C(O)C1O (centres undefined) | 35 µM | 25.5 µM | 29.8 µM | 25.7 µM | 25.4 µM | 27.2 µM | 76.6 µM | 24.9 µM | 23 µM | 16.5 µM | > 100 µM
Cc1ccsc1/C=N/Nc1cc(C)c2ccccc2n1 | 35.6 µM | 31.3 µM | 31.9 µM | 26.6 µM | 30.4 µM | 6.33 µM | 57.8 µM | 32.8 µM | 37.1 µM | 31.4 µM | 8.9 µM
O=C1Nc2ccccc2SC1=C(C(=O)c1ccccc1)C(=O)c1ccccc1 | 65.3 µM | > 90.8 µM | > 100 µM | 41.5 µM | > 100 µM | > 100 µM | 77.4 µM | > 100 µM | > 87.5 µM | > 94.6 µM | > 100 µM
Nc1ncc2c(n1)-c1ccccc1OC2 | > 100 µM | > 100 µM |  | > 100 µM | > 100 µM | > 100 µM | > 100 µM | > 100 µM | > 100 µM | 94.4 µM | > 100 µM
OCC(S)CS.[Bi] (centres undefined) | > 100 µM | 52.2 µM | 32.4 µM | 24.7 µM | > 100 µM | 54.9 µM | 5.22 µM | 37.3 µM | > 100 µM | 26.8 µM | 28.3 µM
O=S(=O)(O)c1cc(N=[N+]([O-])c2ccc(N=Nc3ccccc3)cc2S(=O)(=O)O)ccc1/C=C/c1ccc(N=[N+]([O-])c2ccc(N=Nc3ccccc3)cc2S(=O)(=O)O)cc1S(=O)(=O)O | > 100 µM | > 100 µM |  | > 100 µM | > 100 µM | > 100 µM | > 100 µM | > 100 µM | > 100 µM | > 100 µM | > 100 µM
Cc1oc2nc(N(C)C)n3cnnc3c2c1C | > 100 µM | > 100 µM | > 100 µM | > 100 µM | > 100 µM | > 100 µM | > 100 µM | > 100 µM | > 100 µM | > 100 µM | > 100 µM
CCCCCCCCCCCCCCCCCCNc1nc(=O)n(C2CC(OP(=O)(O)OCC3OC(n4cc(F)c(=O)[nH]c4=O)CC3O)C(CO)O2)cc1F (centres undefined) | > 100 µM | > 100 µM | > 100 µM | > 100 µM | > 100 µM | > 100 µM | 42.7 µM | 30.3 µM | > 100 µM | > 100 µM | 49.7 µM
O=C(NNc1nc(-c2ccccc2)cs1)Nc1ccccc1 | 52.2 µM | 41.2 µM | 48.6 µM | 50.2 µM | 62.8 µM | > 100 µM | > 100 µM | > 100 µM | 46.5 µM | 69.3 µM | 44.2 µM
Cn1c(-c2c(C3=CC(=O)N(c4ccccc4)C3=O)c3ccccc3n2C)cc2ccccc21 | > 100 µM | > 100 µM | > 100 µM | > 100 µM | > 100 µM | > 100 µM | > 100 µM | > 100 µM | > 100 µM | > 100 µM | > 100 µM
CC1=NN2CCC(=O)N=C2S1 | > 100 µM | > 100 µM | > 100 µM | > 100 µM | > 100 µM | > 100 µM | > 100 µM | > 100 µM | > 100 µM | > 100 µM | > 100 µM
CC(C)=CCC[C@@H](C)C1=C(O)C(Nc2ccccc2)=C(C)C(=O)C1=O | > 96.2 µM | 98.7 µM | > 100 µM | > 52.2 µM | > 86 µM | > 100 µM | 5.78 µM | > 100 µM | > 73.4 µM | > 85.8 µM | > 73.3 µM
O=NNc1c[nH]c(=O)[nH]c1=O | > 100 µM | > 100 µM | > 100 µM | > 100 µM | > 100 µM | > 100 µM | > 100 µM | > 100 µM | > 100 µM | > 100 µM | > 100 µM
O=C(O)C1CSC2(CCCN(Cc3ccccc3)C2)N1 (centres undefined) | > 100 µM | > 100 µM | > 100 µM | > 100 µM | > 100 µM | > 100 µM | > 79.6 µM | > 100 µM | > 100 µM | > 100 µM | > 34.4 µM
O=c1[nH]c2ccc(C(F)(F)F)cc2nc1C(F)(F)F | 85.7 µM | 46.9 µM | > 100 µM | 41.8 µM | 80.3 µM | 95.3 µM | 42.7 µM | > 100 µM | 89 µM | 48 µM | > 100 µM
O=[N+]([O-])c1ccc(Nc2cccc3c2[nH]c2c(-c4ccccc4)nccc23)c([N+](=O)[O-])c1 | > 100 µM | > 100 µM |  | > 100 µM | > 100 µM | > 100 µM | > 100 µM | > 100 µM | > 100 µM | > 100 µM | > 100 µM
CSc1c(C)n([O-])c2cc(Cl)c(Cl)cc2[n+]1=O | > 100 µM | 31.8 µM | 35.6 µM | 33.1 µM | 45 µM | 30.8 µM | 4.58 µM | > 100 µM | 27.1 µM | > 69.4 µM | 34.9 µM
COc1ccc(C2NC(N)=C(C#N)C3=C2C(C)CCC3)cc1OC (centres undefined) | > 100 µM | > 100 µM | > 100 µM | > 100 µM | > 100 µM | > 100 µM | > 100 µM | > 100 µM | > 100 µM | 16.7 µM | > 100 µM
O=C(CN1CCN(c2ccccn2)CC1)N1CCCn2c1nc1ccccc1c2=O | > 100 µM | > 100 µM | > 100 µM | > 100 µM | > 100 µM | > 100 µM | > 100 µM | > 100 µM | > 100 µM | > 100 µM | > 100 µM
NC(=S)NS(=O)(=O)c1ccc(Cl)cc1 | > 100 µM | > 100 µM | > 100 µM | > 100 µM | > 100 µM | > 100 µM | > 100 µM | > 100 µM | > 100 µM | > 100 µM | > 100 µM
CC(C)(NC(=O)C(C)(C)NC(=O)OCc1ccccc1)C(=O)O (Cbz-[Aib]-[Aib]-OH) | > 100 µM | > 100 µM | > 100 µM | > 100 µM | > 100 µM | > 100 µM | > 100 µM | > 100 µM | > 100 µM | > 100 µM | > 100 µM
CCN(CCC#N)C(=O)Nc1ccccc1 | > 100 µM | > 100 µM | > 100 µM | > 100 µM | > 100 µM | > 100 µM | > 100 µM | > 100 µM | > 100 µM | > 100 µM | > 100 µM
COc1cccc(N(CN2C(=O)CCC2OC)C(C)=O)c1 (centres undefined) | > 100 µM | > 100 µM | > 100 µM | > 100 µM | > 100 µM |  | > 100 µM | > 100 µM | > 100 µM | > 100 µM | > 100 µM
